# Assays:
# [1] = Wash test in liquid detergent: odour intensity and quality on line-dried fabric, assessed by expert panel; conditions: for Fragrance score after 1 day / Fragrance score after 3 days: line-dried cotton/elastane fabric, panel of 4-6 experts, scale 0 (odourless) to 5 (extremely strong); for Odour intensity on dried fabric over time (FIG. 1): 0.2% by weight in liquid detergent, 40° C. wash, fresh dried, after 24 hours and after four days, scale 0 to 5
# Protocol: A Nitrone precursor (Sample A: (E)-2-methyl-N-(4-methylbenzyl)undecan-1-imine oxide, compound of Example 1) has been compared to the aldehyde (Sample B: 2-methyl undecanal) in a wash test. • 1) Sample preparation: 0.2% by weight of the precursor or the aldehyde have been incorporated into unperfumed liquid detergent base by magnetic stirring at room temperature for 24 h., • 2) Wash test: A 40° C. machine wash cycle was performed using 55 g of the liquid detergent sample containing the test material and odour-neutral cotton/elastan mixed fabric T-shirts. […]
# Further compounds of formula (I) have been tested in liquid detergent. • 1) Sample preparation: 0.2% wt/wt of the test material was incorporated in unperfumed liquid detergent base by magnetic stirring at room temperature for 24 h. • 2) Wash test: a 40° C. machine wash cycle was performed using 55 g of the liquid detergent sample containing the test material and odour-neutral cotton/elastane mixed fabric T-shirts. The wet fabric is line-dried and odour intensity and quality are assessed by a panel of 4-6 experts after 1 and 3 days on an intensity scale of 0 (odourless) to 5 (extremely strong).
# [2] = Biodegradability by manometric respirometry test (OECD guideline No. 301F); conditions: OECD 301F manometric respirometry; oxygen consumption of theory
# Description: The results of the biodegradability assessment by the manometric respirometry test (OECD guideline for the testing of materials No. 301F, Paris 1992) are summarized in Table 2.
# A compound can be classified biodegradable, if it reaches the pass level of 60% oxygen consumption of theory required for complete mineralization.
# It is readily biodegradable, if the pass level is reached within 10 days within the 28-day period of the test. The 10-day window begins when the degree of biodegradation has reached 10%.
# If the pass level is obtained after 28-day period of the test, the compound can be classified as inherently biodegradable.
# [3] = Stability test in liquid detergent base by quantitative HPLC with UV detection; type: physicochemical
# Protocol: Example 61: Stability test in liquid detergentThe stability of (E)-N-isopropyl-2-methylundecan-1-imine oxide (compound of Example 9) in a liquid detergent base was assessed by quantitative HPLC with UV detection.
# A liquid detergent sample as prepared above containing the test substance was sampled at TO and after 30 days storage at 37° C. (300 mg diluted with 10 mL acetonitrile/high purity water 1:1), and the concentration of the precursor was assessed by quantitative HPLC-UV using an external calibration curve.
# [4] = Application in shampoo: odour intensity and quality on dry hair swatches, assessed by expert panel; conditions: 0.2% wt/wt in shampoo
# Protocol: • 1) Sample preparation: 0.2% wt/wt of (E)-N-isopropyl-2-methylundecan-1-imine oxide (compound of example 9) was incorporated in unperfumed shampoo base by magnetic stirring at room temperature for 24 h. • 2) Wash test: Hair swatches were wetted with warm tap water, then 2 mL of the above prepared shampoo sample was applied to the hair swatches lathering with gloves delicately for 30 seconds. The hair swatches were rinsed with cold tap water for 20 seconds and excess water was removed by squeezing the hair swatches between two fingers. The hair swatches were left to dry in open air. Their odour intensity and quality was assessed by a panel of 4-6 experts after 1 and 2 days on an intensity scale of 0 (odourless) to 5 (extremely strong). • 3) Results: After 1 day, the fragrance score was 3.2, after 2 days, the fragrance score was 3.3.
# [5] = 0.2% wt/wt in liquid detergent, 40° C. machine wash
smiles,measurement,setting,value
"CC1=C(/C=C/C(C)=[N+](/[O-])C(C)C)C(C)(C)CCC1 [Example 10, (2E,3E)-N-isopropyl-4-(2,6,6-trimethylcyclohex-1-en-1-yl)but-3-en-2-imine oxide]",Fragrance score after 1 day,[1]; [5],2.3
same,Fragrance score after 3 days,[1]; [5],2.2
same,Odour on dry fabric,"[1]; 0.2% wt/wt in liquid detergent, 40° C. machine wash, line-dried fabric, odour quality by panel",ionone
"CCCCCCCCCC(C)/C=[N+](\C)[O-] (stereo not shown) [Example 13, (E)-N,2-dimethylundecan-1-imine oxide]",Biodegradation in %,[2],89%
"CCCCCCCCC/C=C/C=[N+](\[O-])Cc1ccccc1 [Example 49, (1Z,2E)-N-benzyldodec-2-en-1-imine oxide]",Fragrance score after 1 day,[1]; [5],2.9
same,Fragrance score after 3 days,[1]; [5],3.0
"CCCCCCCCCC(C)/C=[N+](/[O-])CC(C)CCC (stereo not shown) [Example 15, (E)-2-methyl-N-(2-methylpentyl)undecan-1-imine oxide]",Biodegradation in %,[2],75%
"CCCCCCCCCC(C)/C=[N+](/[O-])Cc1ccccc1 (stereo not shown) [Example 5, (E)-N-benzyl-2-methylundecan-1-imine oxide]",Biodegradation in %,[2],87%
"CCCCCCCCCC(C)/C=[N+](/[O-])C1CCCCC1 (stereo not shown) [Example 6, (E)-N-cyclohexyl-2-methylundecan-1-imine oxide]",Biodegradation in %,[2],74%
"CCCCCCCCCC(C)/C=[N+](/[O-])Cc1ccc(C)cc1 (stereo not shown) [Example 1, (E)-2-methyl-N-(4-methylbenzyl)undecan-1-imine oxide]",Biodegradation in %,[2],83%
same,Odour intensity on dried fabric over time (FIG. 1),[1],increases with time and is the highest after four days
"CCCCCCCCCC(C)/C=[N+](/[O-])Cc1ccc(OC)cc1 (stereo not shown) [Example 58, (E)-N-(4-methoxybenzyl)-2-methylundecan-1-imine oxide]",Biodegradation in %,[2],76%
"CCCCCCCCCC(C)C=O (stereo not shown) [Sample B, 2-methyl undecanal, reference compound]",Odour intensity on dried fabric over time (FIG. 1),[1],relatively high on the freshly dried sample and decreases with time
"CCCCCCCCCC(C)/C=[N+](/[O-])C(C)C (stereo not shown) [Example 9, (E)-N-isopropyl-2-methylundecan-1-imine oxide]",Biodegradation in %,[2],70%
same,Stability in liquid detergent (judgement),"[3]; 30 days storage at 37° C., alkaline liquid detergent",stable
same,"Concentration of the precursor in liquid detergent, initial","[3]; liquid detergent base, T0, HPLC-UV",0.21 weight %
same,Concentration of the precursor in liquid detergent after storage,"[3]; liquid detergent base, after 30 days storage at 37° C., HPLC-UV",0.18 weight %
same,Fragrance score after 1 day,[1]; [5],2.4
same,Fragrance score after 3 days,[1]; [5],3.2
same,Perceived odour on dry hair,[4],"clean, aldehydic"
same,Fragrance score after 1 day,"[4]; panel of 4-6 experts, scale 0 (odourless) to 5 (extremely strong), after 1 day",3.2
same,Fragrance score after 2 days,"[4]; panel of 4-6 experts, scale 0 (odourless) to 5 (extremely strong), after 2 days",3.3

# Source: US20240294470A1, “FRAGRANCE COMPOUNDS” (Givaudan SA, priority 2021, published 2024)
